Test results taken from US7138361B2, “Herbicidal heterocycles” (E. I. du Pont de Nemours and Company, priority 2000, dated 2006).

Columns and labels:
Format in all cases: in vivo
[1] = tested on: goosegrass (Eleusine indica); test: Test C preemergence; conditions: for Plant response rating (0 to 100), Goosegrass: visual evaluation after 12 to 14 days
How it was run: (§1)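 Seeds are planted and treated before emergence; for the postemergence test, plants at 1- to 4-leaf stage (2–18 cm) receive the same formulation, a solvent blend containing surfactant. Plants stay in the greenhouse 12–14 days, then response is scored visually from 0 (none) to 100 (complete control).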

[2] = tested on: pigweed (Amaranthus retroflexus); test: Test C preemergence
How it was run: as §1

kochia (Kochia scoparia) = test: Test C preemergence; conditions: for Plant response rating (0 to 100), Kochia: visual evaluation after 12 to 14 days
How it was run: as §1

[3] = tested on: bermudagrass (Cynodon dactylon); test: Test C preemergence; conditions: for Plant response rating (0 to 100 where 0 is no effect and 100 is complete control), Bermudagrass: visual evaluation after 12 to 14 days
How it was run: as §1

[4] = tested on: common ragweed (Ambrosia elatior); test: Test C preemergence
How it was run: as §1

corn (Zea mays) = test: Test C preemergence; conditions: for Plant response rating (0 to 100), Corn: visual evaluation after 12 to 14 days
How it was run: as §1

Nightshade = test: Test C preemergence
soybean (Glycine max) = test: Test C preemergence
How it was run: as §1

[5] = tested on: woolly cupgrass (Eriochloa villosa); test: Test C preemergence; conditions: for Plant response rating (0 to 100), Cupgrass, Woolly: visual evaluation after 12 to 14 days
How it was run: as §1

[6] = tested on: morningglory (Ipomoea hederacea); test: Test C preemergence
How it was run: as §1

[7] = tested on: johnsongrass (Sorghum halepense); test: Test C preemergence; conditions: for Plant response rating (0 to 100), Johnsongrass: preemergence, visual evaluation after 12 to 14 days
How it was run: as §1

[8] = tested on: giant foxtail (Setaria faberii); test: Test C preemergence; conditions: for Plant response rating (0 to 100), Foxtail, Giant: visual evaluation after 12 to 14 days
How it was run: as §1

Sunflower [9] = test: Test C preemergence; conditions: Rate 125 g/ha; scale 0 to 100, 0 no effect, 100 complete control
[10] = tested on: crabgrass (Digitaria sanguinalis); test: Test C preemergence; conditions: for Plant response rating (0 to 100), Crabgrass: visual evaluation after 12 to 14 days
How it was run: as §1

[11] = tested on: yellow nutsedge (Cyperus esculentus); test: Test C preemergence
How it was run: as §1

[12] = tested on: lambsquarters (Chenopodium album); test: Test C preemergence
How it was run: as §1

[13] = tested on: cocklebur (Xanthium strumarium); test: Test C preemergence; conditions: for Plant response rating (0 to 100), Cocklebur: visual evaluation after 12 to 14 days
How it was run: as §1

[14] = tested on: Surinam grass (Brachiaria decumbens); test: Test C preemergence; conditions: for Plant response rating (0 to 100), Surinam grass: visual evaluation after 12 to 14 days
How it was run: as §1

[15] = tested on: velvetleaf (Abutilon theophrasti); test: Test C preemergence
How it was run: as §1

Sunflower [16] = test: Test C preemergence; conditions: Rate 500 g/ha, visual evaluation after 12 to 14 days
[17] = tested on: barnyardgrass (Echinochloa crus-galli); test: Test C flooded paddy test; conditions: for Barnyardgrass plant response rating: Flooded Paddy, scale 0 to 100, 0 no effect, 100 complete control; for Plant response rating, Barnyardgrass: flooded paddy test, scale 0 to 100 (0 no effect, 100 complete control)
How it was run: (§2)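 Response on a 0-to-100 scale (no effect to complete control) was assessed by eye versus controls. Plants had reached 2 leaves when treated in flooded paddy conditions. The assessment took place after 12–14 days of greenhouse growth.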

rice (Oryza saliva) = test: Test C flooded paddy test; conditions: for Rice plant response rating: Flooded Paddy, scale 0 to 100, 0 no effect, 100 complete control; for Plant response rating, Rice: flooded paddy test, scale 0 to 100 (0 no effect, 100 complete control)
How it was run: as §2

[18] = Rate 125 g/ha, scale 0 to 100, 0 no effect, 100 complete control
[19] = preemergence, Rate 62 g/ha, scale 0 to 100
[20] = preemergence, Rate 500 g/ha, visual evaluation after 12 to 14 days
[21] = preemergence, Rate 250 g/ha, scale 0 to 100, 0 no effect, 100 complete control

COc1cc(N2CCC(n3ccc(C(C)C)n3)C2=O)ccc1C (centres unmarked) [Compound 85]
Plant response rating, Goosegrass [1, 18]: 100
Plant response rating, Goosegrass [1, 19]: 20
Plant response rating (0 to 100), Goosegrass ([1]; preemergence, Rate 250 g/ha): 100
Plant response rating (0 to 100), Goosegrass ([1]; preemergence, Rate 500 g/ha): 100
Plant response rating, Pigweed [2, 18]: 100
Plant response rating, Pigweed [2, 19]: 100
Plant response rating (0 to 100), Pigweed [2, 20]: 100
Plant response rating, Pigweed [2, 21]: 100
Plant response rating, Kochia (kochia (Kochia scoparia); [18]): 100
Plant response rating, Kochia (kochia (Kochia scoparia); [19]): 100
Plant response rating (0 to 100), Kochia (kochia (Kochia scoparia); preemergence, Rate 250 g/ha): 100
Plant response rating (0 to 100), Kochia (kochia (Kochia scoparia); preemergence, Rate 500 g/ha): 100
Plant response rating, Bermudagrass [3, 18]: 100
Plant response rating, Bermudagrass [3, 19]: 100
Plant response rating (0 to 100 where 0 is no effect and 100 is complete control), Bermudagrass ([3]; preemergence, Rate 250 g/ha): 100
Plant response rating (0 to 100 where 0 is no effect and 100 is complete control), Bermudagrass ([3]; preemergence, Rate 500 g/ha): 100
Plant response rating, Ragweed, Common [4, 18]: 100
Plant response rating, Ragweed, Common [4, 19]: 90
Plant response rating (0 to 100), Ragweed, Common [4, 20]: 100
Plant response rating, Ragweed, Common [4, 21]: 100
Plant response rating, Corn (corn (Zea mays); [18]): 30
Plant response rating, Corn (corn (Zea mays); [19]): 30
Plant response rating (0 to 100), Corn (corn (Zea mays); preemergence, Rate 250 g/ha): 60
Plant response rating (0 to 100), Corn (corn (Zea mays); preemergence, Rate 500 g/ha): 80
Plant response rating, Nightshade (Nightshade; Rate 62 g/ha, scale 0 to 100): 80
Plant response rating, Nightshade (Nightshade; [18]): 90
Plant response rating, Nightshade (Nightshade; Rate 250 g/ha, scale 0 to 100, 0 no effect, 100 complete control): 100
Plant response rating, Soybean (soybean (Glycine max); [18]): 40
Plant response rating, Soybean (soybean (Glycine max); [19]): 20
Plant response rating (0 to 100), Soybean (soybean (Glycine max); [20]): 100
Plant response rating, Soybean (soybean (Glycine max); [21]): 40
Plant response rating, Cupgrass, Woolly [5, 18]: 100
Plant response rating, Cupgrass, Woolly [5, 19]: 100
Plant response rating (0 to 100), Cupgrass, Woolly ([5]; preemergence, Rate 250 g/ha): 100
Plant response rating (0 to 100), Cupgrass, Woolly ([5]; preemergence, Rate 500 g/ha): 100
Plant response rating, Morningglory [6, 18]: 90
Plant response rating, Morningglory [6, 19]: 50
Plant response rating (0 to 100), Morningglory [6, 20]: 100
Plant response rating, Morningglory [6, 21]: 90
Plant response rating, Johnsongrass [7, 18]: 50
Plant response rating (0 to 100), Johnsongrass ([7]; Rate 250 g/ha): 80
Plant response rating (0 to 100), Johnsongrass ([7]; Rate 500 g/ha): 100
Plant response rating, Foxtail, Giant [8, 18]: 100
Plant response rating, Foxtail, Giant [8, 19]: 60
Plant response rating (0 to 100), Foxtail, Giant ([8]; preemergence, Rate 250 g/ha): 100
Plant response rating (0 to 100), Foxtail, Giant ([8]; preemergence, Rate 500 g/ha): 100
Plant response rating, Sunflower (Sunflower [9]): 70
Plant response rating, Crabgrass [10, 18]: 100
Plant response rating, Crabgrass [10, 19]: 100
Plant response rating (0 to 100), Crabgrass ([10]; preemergence, Rate 250 g/ha): 100
Plant response rating (0 to 100), Crabgrass ([10]; preemergence, Rate 500 g/ha): 100
Plant response rating, Nutsedge [11, 18]: 70
Plant response rating, Nutsedge [11, 19]: 50
Plant response rating (0 to 100), Nutsedge [11, 20]: 90
Plant response rating, Nutsedge [11, 21]: 70
Plant response rating, Lambsquarters [12, 18]: 100
Plant response rating, Lambsquarters [12, 19]: 100
Plant response rating (0 to 100), Lambsquarters [12, 20]: 100
Plant response rating, Lambsquarters [12, 21]: 100
Plant response rating, Cocklebur [13, 18]: 60
Plant response rating, Cocklebur [13, 19]: 60
Plant response rating (0 to 100), Cocklebur ([13]; preemergence, Rate 250 g/ha): 60
Plant response rating (0 to 100), Cocklebur ([13]; preemergence, Rate 500 g/ha): 60
Plant response rating, Surinam grass [14, 18]: 30
Plant response rating, Surinam grass [14, 19]: 30
Plant response rating (0 to 100), Surinam grass ([14]; preemergence, Rate 250 g/ha): 100
Plant response rating (0 to 100), Surinam grass ([14]; preemergence, Rate 500 g/ha): 100
Plant response rating, Velvetleaf [15, 18]: 70
Plant response rating, Velvetleaf [15, 19]: 70
Plant response rating (0 to 100), Velvetleaf [15, 20]: 100
Plant response rating, Velvetleaf [15, 21]: 80
Plant response rating (0 to 100), Sunflower (Sunflower [16]): 70
Barnyardgrass plant response rating ([17]; Rate 250 g/ha): 100
Barnyardgrass plant response rating ([17]; Rate 500 g/ha): 100
Plant response rating, Barnyardgrass ([17]; Rate 62 g/ha): 40
Plant response rating, Barnyardgrass ([17]; Rate 125 g/ha): 90
Rice plant response rating (rice (Oryza saliva); Rate 250 g/ha): 80
Rice plant response rating (rice (Oryza saliva); Rate 500 g/ha): 100
Plant response rating, Rice (rice (Oryza saliva); Rate 62 g/ha): 30
Plant response rating, Rice (rice (Oryza saliva); Rate 125 g/ha): 60
